Source: patent US20240209092A1, “COMBINATION THERAPIES FOR TREATING CANCER” (ADAGENE INC., priority 2021, published 2024)

Columns and labels:
[1] = system: Renca murine kidney cancer cells; assay: Renca cancer model, TY21580 with Anlotinib; format: in vivo, mice
Procedure: Mice were inoculated subcutaneously with Renca murine kidney cancer cells. […] Anlotinib at 3 mg/kg was p.o. dosed daily for 17 doses.

CT26 cancer model = assay: CT26 cancer model, TY21580 with Fruquintinib; format: in vivo, mice
Procedure: Dosing started when average tumor volume reached about 120 mm^3 (n=8 per group). […] Fruquintinib at 5 mg/kg was p.o. dosed daily for 3 weeks.

4T1 cancer model = details: Day 35; TY21580 2 mg/kg i.p. biweekly four doses, Docetaxel 10 mg/kg i.v. weekly 3 doses
Procedure: Dosing started when average tumor volume reached about 90 mm^3 (n=8 per group). When the mean tumor volume reached 90 mm^3, the tumor bearing mice were randomized into different treatment groups of eight mice each. […] Docetaxel at 10 mg/kg was i.v. dosed weekly for 3 doses.

4T1 breast cancer cells = assay: 4T1 breast cancer model, ADG106 with TY21580; format: in vivo, BALB/c mice; details: TY21580 2 mg/kg, ADG106 5 mg/kg, i.p. twice a week for 2 weeks
[2] = system: B16F10 murine melanoma tumor cells; assay: B16F10 melanoma model, ADG106 with TY21580 (FIG. 17); format: in vivo, mice; details: 5 mg/kg each, IP twice a week from tumor inoculation
Procedure: All antibodies were dosed twice a week.

[3] = system: EMT6 murine breast cancer cells; assay: EMT6 cancer model, ADG106 with TY21580; format: in vivo, mice; details: ADG106 0.5 mg/kg, TY21580 0.1 mg/kg, i.p. biweekly
Procedure: (§1) FIGS. 19A-19B provide the results of ADG106 administered in combination with TY21580 in the EMT6 cancer model to assess in vivo antitumor efficacy of ADG106 and TY21580 combination treatment. Mice were inoculated subcutaneously with EMT6 murine breast cancer cells. […] Intraperitoneal administration of 0.5 mg/kg ADG106 or 0.1 mg/kg TY21580, or combination of these two agents, was initiated on a biweekly schedule.

[4] = system: 4T1 murine breast cancer cells; assay: 4T1 cancer model, TY22404 with ADG106; format: in vivo, mice; details: Day 33; 5 mg/kg TY22404 and/or ADG106 i.p. biweekly, four doses
Procedure: Mice were inoculated subcutaneously with 4T1 murine breast cancer cells. […] Intraperitoneal administration of Vehicle, 5 mg/kg TY22404 or ADG106, or combination of these two agents, was initiated on a biweekly schedule for four doses.

[5] = system: MC38 murine colon tumor cells; assay: MC38 cancer model, TY22404 with ADG106; format: in vivo, mice; details: Day 27 post tumor cell inoculation; 5 mg/kg each, i.p. biweekly four doses
Procedure: FIG. 25 provides the results of TY22404 administered in combination with ADG106 antibody in the MC38 cancer model to assess in vivo antitumor efficacy of the combination treatment. Mice were inoculated subcutaneously with MC38 murine colon tumor cells. […] Intraperitoneal administration of test antibodies was initiated on a biweekly schedule for four doses. Tumor growth inhibition (TGI) relative to the isotype control group was evaluated on Day 27 post tumor cell inoculation.

[6] = system: A20 murine B lymphoma cells; assay: A20 cancer model, ADG106 with TY21580; format: in vivo, mice; details: ADG106 5 mg/kg, TY21580 0.5 mg/kg, i.p. biweekly, 4 doses
Procedure: as §1, with “18A-18B” for “19A-19B”, “A20” for “EMT6”, “B lymphoma” for “breast cancer”, “5” for “0.5”, “0.5” for “0.1”, “schedule for 4 doses.” for “schedule.”

[7] = system: MC38 murine colon tumor cells; assay: MC38 colon cancer model, ADG106 with TY21580 (FIGS. 13A-13B); format: in vivo, mice; details: Day 33; ADG106 10 mg/kg alone
Procedure: Mice were inoculated subcutaneously with MC38 murine colon tumor cells. […] These groups received either 10 mg/kg isotype control, 10 mg/kg ADG106, 0.2 or 2 mg/kg TY21580, or a combination of ADG106 and TY21580 at the same doses by IP injection. All antibodies were dosed twice a week for 4 weeks. […] No adverse effects were observed on body weights with these treatments.

[8] = system: CT26 murine colon tumor cells; assay: CT26 colon cancer model, ADG106 with TY21580 (FIGS. 12A-12B); format: in vivo, mice; details: Day 19; ADG106 0.2 mg/kg and/or TY21580 0.2 mg/kg, IP twice a week
Procedure: FIGS. 12A-12B provide the results of ADG106 administered in combination with TY21580 in the mouse CT26 colon cancer model to assess in vivo antitumor efficacy of ADG106 and TY21580 combination treatment. Mice were inoculated subcutaneously with CT26 murine colon tumor cells. […] These groups received either 1 mg/kg isotype control, 0.2 mg/kg ADG106, 0.2 or 1 mg/kg TY21580, or a combination of ADG106 and TY21580 at the same doses by IP injection. All antibodies were dosed twice a week.

[9] = system: EMT6 murine breast cancer cells; assay: EMT6 cancer model, TY21580 with Olaparib; format: in vivo, mice; details: Olaparib 50 mg/kg p.o. daily for 21 doses
Procedure: Mice were inoculated subcutaneously with EMT6 murine breast cancer cells. […] Intraperitoneal administration of TY21580 at 0.1 mg/kg was initiated on a biweekly schedule. Olaparib at 50 mg/kg was p.o. dosed daily for 21 doses.

Compound: COc1cc2c(Oc3ccc4[nH]c(C)cc4c3F)ccnc2cc1OCC1(N)CC1 [Anlotinib]
- TGI vs vehicle control ([1]; Day 29, Anlotinib 3 mg/kg p.o. daily for 17 doses): 93%
- antitumor effect vs vehicle control, in words ([1]; TY21580 5 mg/kg i.p. biweekly four doses, Anlotinib 3 mg/kg p.o. daily): strong antitumor activity

Compound: CNC(=O)c1c(C)oc2cc(Oc3ncnc4cc(OC)c(OC)cc34)ccc12 [Fruquintinib, reference compound]
- antitumor activity vs isotype control, in words (CT26 cancer model; TY21580 0.1 mg/kg i.p. biweekly four doses, Fruquintinib 5 mg/kg p.o. daily for 3 weeks): partial antitumor activity
- complete response (CR) (CT26 cancer model; TY21580 0.1 mg/kg, Fruquintinib 5 mg/kg, n=8 per group): no complete response

Compound: CC(=O)O[C@@]12CO[C@@H]1C[C@H](O)[C@@]1(C)C(=O)[C@H](O)C3=C(C)[C@@H](OC(=O)[C@H](O)[C@@H](NC(=O)OC(C)(C)C)c4ccccc4)C[C@@](O)([C@@H](OC(=O)c4ccccc4)[C@H]21)C3(C)C [Docetaxel, reference compound]
- TGI vs vehicle control (4T1 cancer model): 38.3%

Compound: ADG106: anti-CD137 antibody, heavy chain SEQ ID NO: 240, light chain SEQ ID NO: 241
- anti-tumor activity vs isotype control, in words (4T1 breast cancer cells): showed anti-tumor activity
- antitumor activity vs isotype control, in words [2]: did not inhibit tumor growth
- antitumor activity vs vehicle control, in words [3]: significant antitumor activity
- TGI vs vehicle control [4]: 10%
- Tumor growth inhibition (TGI) relative to isotype control [5]: 21%
- antitumor activity vs vehicle control, in words [6]: partial antitumor activity
- tumor growth inhibition, in words [7]: did not inhibit tumor growth
- TGI vs isotype control [8]: 47%

Compound: O=C(c1cc(Cc2n[nH]c(=O)c3ccccc23)ccc1F)N1CCN(C(=O)C2CC2)CC1 [Olaparib, reference compound]
- antitumor effect vs vehicle control, in words [9]: no significant antitumor effect
